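Five compound concentrations were applied to cells in 96-well plates for 48 hours; endpoints were derived by simple linear interpolation of the resulting dose-response curve. At the TGI there is no net growth.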
Key:
Experiment in all cases: NCI anticancer screen, dose series, 48 h
SK-OV-3 ovarian = system: SK-OV-3 ovarian
ACHN renal = system: ACHN renal
HT29 colon = system: HT29 colon
SF-295 CNS = system: SF-295 CNS
HCC-2998 colon = system: HCC-2998 colon
MALME-3M melanoma = system: MALME-3M melanoma
SR leukemia = system: SR leukemia
KM12 colon = system: KM12 colon
UACC-62 melanoma = system: UACC-62 melanoma
NCI-H226 lung = system: NCI-H226 lung
UACC-257 melanoma = system: UACC-257 melanoma
786-0 renal = system: 786-0 renal
CAKI-1 renal = system: CAKI-1 renal
SW-620 colon = system: SW-620 colon
SK-MEL-28 melanoma = system: SK-MEL-28 melanoma
A549 NSCLC = system: A549 NSCLC
XF 498 CNS = system: XF 498 CNS
TK-10 renal = system: TK-10 renal
LOX IMVI melanoma = system: LOX IMVI melanoma
MOLT-4 leukemia = system: MOLT-4 leukemia
A498 renal = system: A498 renal
SNB-75 CNS = system: SNB-75 CNS
HOP-92 NSCLC = system: HOP-92 NSCLC
UO-31 renal = system: UO-31 renal
HL-60(TB) leukemia = system: HL-60(TB) leukemia
SF-268 CNS = system: SF-268 CNS
NCI-H460 lung = system: NCI-H460 lung
SK-MEL-5 melanoma = system: SK-MEL-5 melanoma
DMS 273 small cell lung = system: DMS 273 small cell lung
IGROV1 ovarian = system: IGROV1 ovarian
DMS 114 small cell lung = system: DMS 114 small cell lung
COLO 205 colon = system: COLO 205 colon
U251 CNS = system: U251 CNS
NCI-H522 lung = system: NCI-H522 lung
NCI-H23 lung = system: NCI-H23 lung
EKVX NSCLC = system: EKVX NSCLC
CCRF-CEM leukemia = system: CCRF-CEM leukemia
HOP-62 NSCLC = system: HOP-62 NSCLC
K-562 leukemia = system: K-562 leukemia
OVCAR-3 ovarian = system: OVCAR-3 ovarian
OVCAR-8 ovarian = system: OVCAR-8 ovarian
KM20L2 colon = system: KM20L2 colon
M14 melanoma = system: M14 melanoma
OVCAR-4 ovarian = system: OVCAR-4 ovarian
HCT-15 colon = system: HCT-15 colon
SF-539 CNS = system: SF-539 CNS
HCT-116 colon = system: HCT-116 colon
SNB-78 CNS = system: SNB-78 CNS
M19-MEL melanoma = system: M19-MEL melanoma
SK-MEL-2 melanoma = system: SK-MEL-2 melanoma
LXFL 529 NSCLC = system: LXFL 529 NSCLC
SN12C renal = system: SN12C renal
OVCAR-5 ovarian = system: OVCAR-5 ovarian
DLD-1 colon = system: DLD-1 colon
SNB-19 CNS = system: SNB-19 CNS
RPMI-8226 leukemia = system: RPMI-8226 leukemia

Measured: TGI

O=c1[nH]cnc2c1sc(=S)n2-c1ccccc1
> 100 µM: SK-OV-3 ovarian | ACHN renal | HT29 colon | SF-295 CNS | HCC-2998 colon | MALME-3M melanoma | SR leukemia | KM12 colon | UACC-62 melanoma | NCI-H226 lung | UACC-257 melanoma | 786-0 renal | CAKI-1 renal | SW-620 colon | SK-MEL-28 melanoma | A549 NSCLC | XF 498 CNS | TK-10 renal | LOX IMVI melanoma | MOLT-4 leukemia | A498 renal | SNB-75 CNS | HOP-92 NSCLC | UO-31 renal | HL-60(TB) leukemia | SF-268 CNS | NCI-H460 lung | SK-MEL-5 melanoma | DMS 273 small cell lung | IGROV1 ovarian | DMS 114 small cell lung | COLO 205 colon | U251 CNS | NCI-H522 lung | NCI-H23 lung | EKVX NSCLC | CCRF-CEM leukemia | HOP-62 NSCLC | K-562 leukemia | OVCAR-3 ovarian | OVCAR-8 ovarian | KM20L2 colon | M14 melanoma | OVCAR-4 ovarian | HCT-15 colon | SF-539 CNS | HCT-116 colon | SNB-78 CNS | M19-MEL melanoma | SK-MEL-2 melanoma | LXFL 529 NSCLC | SN12C renal | OVCAR-5 ovarian | DLD-1 colon | SNB-19 CNS

CCOC(=O)CC[C@H](NC(=O)c1[nH]cnc1/N=N/N(C)C)C(=O)OCC
> 100 µM: SK-OV-3 ovarian | ACHN renal | HT29 colon | SF-295 CNS | HCC-2998 colon | MALME-3M melanoma | KM12 colon | UACC-62 melanoma | NCI-H226 lung | UACC-257 melanoma | 786-0 renal | CAKI-1 renal | SW-620 colon | SK-MEL-28 melanoma | A549 NSCLC | XF 498 CNS | LOX IMVI melanoma | MOLT-4 leukemia | A498 renal | UO-31 renal | HL-60(TB) leukemia | SF-268 CNS | NCI-H460 lung | SK-MEL-5 melanoma | RPMI-8226 leukemia | DMS 273 small cell lung | IGROV1 ovarian | DMS 114 small cell lung | COLO 205 colon | U251 CNS | NCI-H522 lung | NCI-H23 lung | EKVX NSCLC | CCRF-CEM leukemia | HOP-62 NSCLC | K-562 leukemia | OVCAR-3 ovarian | OVCAR-8 ovarian | M14 melanoma | OVCAR-4 ovarian | HCT-15 colon | SF-539 CNS | HCT-116 colon | M19-MEL melanoma | SK-MEL-2 melanoma | LXFL 529 NSCLC | SN12C renal | DLD-1 colon | SNB-19 CNS

— PubChem BioAssay (NCI)
